Entries after “also recorded” stand apart in the source; their conditions may differ.
Key:
cyp1a1 [1] = assay: cyp1a1 expression by q-PCR in mouse Hepa-1c1c7 cells; type: cell-based
Experimental: (§1) RNA was extracted using TRIzol (Invitrogen) following manufacturer's instructions and 0.1 μg of RNA was converted to cDNA using a high capacity cDNA reverse transcription kit (Invitrogen). qPCR was performed on the Applied Biosystems 7900 using TaqMan® Universal PCR Master Mix (Life Technologies) with TaqMan® (Life Technologies) primers against cyp1a1 (Mm00487218_m1), AhR (Mm00478932_m1), IL-22 (Mm01226722_g1), Foxp3 (Mm00475162_m1), IL-10 (Mm01288386_m1), TNF-a (Mm00443258_m1), IFN-r (Mm01168134_m1). The fold increase from experimental groups to control was calculated using the delta-delta CT method with 18S (Mm00446186_m1) as an internal reference gene. In vitro and in vivo activation of the AhR singling pathway was confirmed by q-PCR characterization of cyp1a1. For in vitro induction, mouse Hepa-1c1c7 were cultured to confluence in 24 well plates in full DMEM followed by 24 hours incubation in tryptophan deficient media. Cells were treated with vehicle control (DMSO), ITE, compound 108, or compound 109 (10 nM-10 μM) for 8 hours in tryptophan deficient media. At the end of treatment, cells were lysed in TRIzol for RNA isolation. To monitor in vivo induction, (0.1-1000 μg) compound 109 was given per mouse via oral gavage in 100 μl of vehicle (1% HPMC, 1% polysorbate 80). After 12 hours, liver, colon, spleen and leukocytes from blood were collected and lysed in TRIzol (Invitrogen) for q-PCR analysis.

DSS induced colitis = DSS induced colitis in mice; type: in vivo, C57BL/6 mice; details: 1 μg/day PO; day 11
Experimental: C57BL/6 (8-10 week, male) mice were administered drinking water supplemented with 3% (wt/vol) dextran sodium sulfate (DSS; MP Biomedicals) for 7 days followed by a 13 day recovery period with unsupplemented drinking water. Compound 109 or compound 108 were suspended in vehicle (1% HPMC and 1% polysorbate 80 in water) and given daily by oral gavage (1 ug/mouse in 100 uL), starting at day 0. Control mice were administered 100 μL vehicle. Body weight and disease activity index (DAI) were recorded daily. DAI was determined by combining scores of weight loss, stool consistency, blood in stool, activity, and appearance.^1 Scores were determined as follows: change in weight (0: <1%, 1: 1-10%, 2: 10-18%, 3: 18-20%); stool consistency (0: normal, 1: loose stools, 2: diarrhea); stool blood (0: negative, 1: trace blood, 2: bloody stool, 3: gross bleeding), activity (0: normal, 1: low activity, 2: hiding, 3: no response to gentle stimuli) and appearance (0: normal, 1: rigor, 2: hunched posture). On day 7 and day 11, mice were euthanized and colon were removed for length measurement, histology, RNA isolation, and lamina propria mononuclear cell (LPMC) extraction as detailed below.
Dissected colon were cut longitudinally and rolled using the Swiss roll method with the distal side in the center.^2,3 Colons were fixed overnight in 10% neutral buffered formalin, processed for paraffin embedding and sectioned at 5 μm thickness. To visualize and quantify the inflammatory response and crypt loss, hematoxylin and eosin staining (H&E) was performed. Briefly, sections were cleared with xylene, rehydrated through alcohol gradient, stained by hematoxylin, washed by acid and ammonium alcohol, rinsed in water and exposed to Eosin followed by dehydrating through graded alcohols and cleared in xylene. All sections were mounted using Permount (Fisher Scientific) and visualized using a BX41 microscope (Olympus). For histological scoring, 3 transverse sections of Swiss roll were chosen and 9 (100×) images were captured for each section. Images were analyzed for inflammation and crypt structure and scored by a blind observer as follows: inflammation (0: rare inflammatory cells in the lamina propria; 1: increased numbers of inflammatory cells in the lamina propria; 2: confluence of inflammatory cells extending in to the submucosa; 3: transmural extension of the inflammatory infiltrate.); crypt loss (0: none; 1: basal 1/3 damaged; 2: basal 2/3 damaged; 3: only surface epithelium intact; 4: entire crypt and epithelium lost). Inflammation and crypt loss were scored separately and multiplied by a factor of 1-4 to adjust for impacted area of tissue section (1: 0-25%; 2: 25.1-50% affected; 3: 50.1-75% affected; 4: >75% affected).^1,4 To examine goblet cell number, sections were stained by a commercial periodic acid-Schiff (PAS) and Alcian blue kit (Fisher Scientific). For quantification, 3 transverse sections of Swiss roll were chosen per colon and 5 random images at 200x were taken per section in the distal region of the colon. Goblet cell number was counted per image and normalized to colon length by a blind observer using image J.^5
Colonic epithelium and lamina propria cells were isolated as previously described.^6,7 Briefly, colons were dissected and washed with HBSS to remove fecal contents. Colon were opened longitudinally and cut into 2 cm segments. […]

[2] = system: AHR-dependent transcription of the CYP1A1 gene; assay: CYP1A1 induction in mouse macrophages; type: cell-based
Experimental: (§2) Mouse macrophages were also used to test AHR-dependent transcription of the CYP1A1 gene in vivo. Finally, the activity of exemplary compounds of Formula (I) described herein was tested in the human […] cell line U937. The U937 cell line is derived from a patient with diffuse histiocytic lymphoma. Tables 2-4 summarize structure-activity relationship data collected for exemplary, non-limiting compounds of Formula (I) described herein.

[3] = target: T1, aryl hydrocarbon receptor (AHR) (Homo sapiens, UniProt P35869); assay: XRE-driven luciferase reporter assay, human HepG2; details: for XRE luciferase Emax (footnote c): Emax defined as fold increase at highest concentration tested (10 μM)
T1 sequence (P35869 11-848): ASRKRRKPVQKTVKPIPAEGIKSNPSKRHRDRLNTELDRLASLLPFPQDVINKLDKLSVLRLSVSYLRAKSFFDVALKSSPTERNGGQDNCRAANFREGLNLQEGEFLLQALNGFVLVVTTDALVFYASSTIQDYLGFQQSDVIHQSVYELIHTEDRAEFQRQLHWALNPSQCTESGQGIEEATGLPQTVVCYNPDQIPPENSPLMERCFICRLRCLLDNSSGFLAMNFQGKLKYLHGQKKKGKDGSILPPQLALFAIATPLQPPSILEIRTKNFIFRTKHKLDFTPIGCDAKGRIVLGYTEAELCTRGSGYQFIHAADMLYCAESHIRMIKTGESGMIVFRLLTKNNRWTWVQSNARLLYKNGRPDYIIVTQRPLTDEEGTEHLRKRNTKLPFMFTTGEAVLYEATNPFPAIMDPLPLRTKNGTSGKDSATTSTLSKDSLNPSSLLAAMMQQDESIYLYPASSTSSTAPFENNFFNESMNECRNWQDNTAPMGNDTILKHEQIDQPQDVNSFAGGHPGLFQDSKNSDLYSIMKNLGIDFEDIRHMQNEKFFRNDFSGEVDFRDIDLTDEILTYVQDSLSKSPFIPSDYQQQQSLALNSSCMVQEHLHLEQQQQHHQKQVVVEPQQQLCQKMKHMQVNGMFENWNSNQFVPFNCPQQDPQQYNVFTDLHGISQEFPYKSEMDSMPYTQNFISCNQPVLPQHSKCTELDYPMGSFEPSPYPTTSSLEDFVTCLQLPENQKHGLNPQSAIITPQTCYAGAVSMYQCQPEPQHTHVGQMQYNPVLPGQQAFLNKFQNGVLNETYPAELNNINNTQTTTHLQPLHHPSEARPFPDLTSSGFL
Experimental: The Human HepG2 cell line is a human liver cancer cell line, and provide a relevant in vitro AHR activity model. These Hep2G cells have been modified to stably express an AHR-responsive (XRE) firefly luciferase reporter gene to give Hep2G-XRE cells. The expression of luciferase should primarily reflect AHR-dependent transcription controlled by XRE.
Transfected cells were treated with AhR agonist (10^−5-10^−12) for 4.5 h in full medium. Cells were lysed and luciferase was activated using the Luciferase Assay System (Promega). Luminescence signals were measured with a FluroStar Omega microplate reader. Luminescence signals of compound treated groups were normalized to vehicle (DMSO) treated control and plotted as concentration dependent fold changes.

cyp1a1 [4] = assay: In vivo tissue cyp1a1 induction after oral gavage (PD profile); parameters: species or system mouse; details: mice, oral gavage 0.1-1000 μg, 12 hours
Experimental: as §1, with “After 12 hours, liver, colon, spleen and leukocytes from blood were collected and lysed in TRIzol (Invitrogen) for q-PCR analysis.” left out

[5] = Plasma stability (LCMS/MS); type: in vitro ADME; details: incubated in plasma
[6] = Liver microsomal stability (LCMS/MS); type: in vitro ADME; details: in the presence of liver microsomes
[7] = cited from earlier work
[8] = system: AHR-dependent transcription of the CYP1A1 gene; assay: CYP1A1 induction in human U937 cells; type: cell-based; details: Human U937, 1 μM
Experimental: as §2

[9] = XRE luciferase EC50, Human HepG2, least square curve fitting, >10,000 = does not reach 50% of Emax of ITE at 10 μM (highest concentration tested)
[10] = XRE luciferase EC50 (footnote a), Human HepG2, EC50 defined as concentration induced 50% of Emax of ITE

| SMILES | CYP1A1 induction (% of ITE ± SEM) ([2]; 50 nM) | CYP1A1 induction (% of ITE ± SEM) ([2]; 5 μM) | EC50 [3, 9] [nM] | XRE luciferase Emax (footnote c) ([3]; Human HepG2) | EC50 [3, 10] [nM] | CYP1A1 induction (% of ITE ± SEM) [8] | further results |
| --- | --- | --- | --- | --- | --- | --- | --- |
| O=C(c1cccc(C(F)(F)F)n1)c1c[nH]c2ccccc12 [Compound 109, 1H-indol-3-yl-[6-(trifluoromethyl)-2-pyridyl]methanone] | 124 ± 5 % of ITE | 90 ± 17 % of ITE | 2.3 |  |  |  | cyp1a1 expression relative to ITE and compound 108 (cyp1a1 [1]; mouse Hepa-1c1c7, 10 nM): significantly increased cyp1a1 expression; cyp1a1 expression (qPCR) (cyp1a1 [1]; mouse Hepa-1c1c7, 10 nM-10 μM, 8 hours): induced AhR-dependent cyp1a1 expression; also recorded: dose dependent induction of cyp1a1 expression; colon IL-22 expression, upregulation (DSS induced colitis): 10 fold; cyp1a1 induction in liver and colon tissue (cyp1a1 [4]): induced dose-dependent cyp1a1; also recorded: Robust, dose-dependent cyp1a1 induction; cyp1a1 induction in spleen and blood (WBC) (cyp1a1 [4]): limited cyp1a1 induction was observed in spleen; also recorded: cyp1a1 regulation only at the highest administered doses |
| O=C(c1cccc(-c2ccccc2)n1)c1c[nH]c2ccccc12 [Compound 113, 1H-indol-3-yl-(6-phenyl-2-pyridyl)methanone] | 91 ± 7 % of ITE | 97 ± 9 % of ITE | 12 | (114)^c fold | 12.1 |  | plasma stability [5]: stable; liver microsomal stability [6]: rapidly metabolized |
| Clc1cc2c(cc1Cl)Oc1cc(Cl)c(Cl)cc1O2 [TCDD, 2,3,7,8-tetrachlorodibenzo-p-dioxin] |  |  |  |  |  |  | half-life [7]: 2,840 days |
| COC(=O)c1cccc(C(=O)c2n[nH]c3ccccc23)c1 [reference compound] | 14 ± 4 % of ITE | 90 ± 2 % of ITE | 680 |  |  | 48 ± 6 % of ITE | XRE luciferase Emax (fold) ([3]; Human HepG2, fold over vehicle): 117 fold |
| COc1cccc(C(=O)c2n[nH]c3ccccc23)c1 [reference compound] | 1 ± 0.2 % of ITE | 27 ± 3 % of ITE |  | (87)^c fold | 2000 | 194 ± 18 % of ITE |  |

From patent US12152016B2, “Aryl hydrocarbon receptor modulators and uses thereof” (Beth Israel Deaconess Medical Center, Inc., priority 2018, dated 2024)
